# Read-outs that look alike come from different tables or passages of the source. Ends that are not written are not given here.
# Key:
# [1] = system: Pectobacterium carotovorum ssp. carotovorum; details: LB-medium, 27°C
# [2] = system: Clavibacter michiganensis ssp. michiganensis; details: LB-medium, 27°C
# Pseudomonas corrugata = details: LB-medium, 27°C
# Cladosporium herbarum = details: 2% malt extract medium, 1.5–2×10^3 spores/ml, room temperature, 3d, visual screening; lowest concentration with no visible growth; at least two independent replicates
# Botrytis cinerea = details: 2% malt extract medium, 1.5–2×10^3 spores/ml, room temperature, 3d, visual screening; lowest concentration with no visible growth; at least two independent replicates
# Xanthomonas vesicatoria = details: LB-medium, 27°C
# [3] = system: Pseudomonas syringae pv. tomato; details: LB-medium, 27°C
# [4] = system: Pseudomonas syringae pv. syringae; details: LB-medium, 27°C
# Alternaria alternata = details: 2% malt extract medium, 1.5–2×10^3 spores/ml, room temperature, 3d, OD590 nm; lowest concentration with no visible growth; at least two independent replicates
# [5] = about 10^5 CFU/ml, 1–2d, OD590 nm, at least two independent replicates
Substance,"MIC [1, 5]","MIC [2, 5]",MIC (Pseudomonas corrugata; [5]),MIC (Cladosporium herbarum),MIC (Botrytis cinerea),MIC (Xanthomonas vesicatoria; [5]),"MIC [3, 5]","MIC [4, 5]",MIC (Alternaria alternata),"MIC ([1]; Table 4, incubation period 1d)","MIC ([2]; Table 4, incubation period 2d)","MIC (Pseudomonas corrugata; Table 4, incubation period 2d)","MIC (Xanthomonas vesicatoria; Table 4, incubation period 2d)","MIC ([3]; Table 4, incubation period 1d)","MIC ([4]; Table 4, incubation period 1d)"
RKKRLKLLKR LV-NH2 [SP1-D],> 40 µg/mL,40 µg/mL,20 µg/mL,20 µg/mL,> 40 µg/mL,40 µg/mL,5 µg/mL,5 µg/mL,20 µg/mL,–,–,–,–,–,–
LRFLKKILKHLF-NH2 [SP10],–,–,–,10 µg/mL,>100 µg/mL,–,–,–,>100 µg/mL,–,–,–,–,–,–
LRALAKALKHKL-NH2 [SP11],>40 µg/mL,>40 µg/mL,10 µg/mL,20 µg/mL,>100 µg/mL,>40 µg/mL,5 µg/mL,>40 µg/mL,>100 µg/mL,–,–,–,–,–,–
KRRLAAFRAFRGALKSVLKK-NH2 [SP16],>40 µg/mL,5 µg/mL,2.5 µg/mL,20 µg/mL,>100 µg/mL,5 µg/mL,5 µg/mL,5 µg/mL,>100 µg/mL,–,–,–,–,–,–
RKKRLKVVKRLV-NH2 [SP1-4],–,–,–,–,–,–,–,–,–,>10 µg/mL,>10 µg/mL,>10 µg/mL,>10 µg/mL,2.5 µg/mL,5.0 µg/mL
RKKKAKIIKKII-NH2 [SP1-10],–,–,–,–,–,–,–,–,–,>10 µg/mL,>10 µg/mL,10 µg/mL,>10 µg/mL,>10 µg/mL,1.0 µg/mL
RKKKFKFFKRFF-NH2 [SP1-13],–,–,–,–,–,–,–,–,–,>10 µg/mL,0.25 µg/mL,<0.1 µg/mL,0.5 µg/mL,2.5 µg/mL,0.1 µg/mL
RKKKLKFFKRLF-NH2 [SP1-11],–,–,–,–,–,–,–,–,–,>10 µg/mL,2.5 µg/mL,0.25 µg/mL,2.5 µg/mL,>10 µg/mL,1.0 µg/mL
KRRLIARILRLAARALVKKR-NH2 [SP13],–,–,–,20 µg/mL,>100 µg/mL,–,–,–,>100 µg/mL,–,–,–,–,–,–
RKKRKKLIKRLI-NH2 [SP1-19],–,–,–,–,–,–,–,–,–,>10 µg/mL,5.0 µg/mL,0.5 µg/mL,5.0 µg/mL,>10 µg/mL,<0.1 µg/mL
RKKKKKIIKKLI-NH2 [SP1-21],–,–,–,–,–,–,–,–,–,>10 µg/mL,>10 µg/mL,2.5 µg/mL,>10 µg/mL,2.5 µg/mL,0.5 µg/mL
KRRLALFRAFRLALKSVLKK-NH2 [SP13-10],–,–,–,–,–,–,–,–,–,>10 µg/mL,0.1 µg/mL,0.25 µg/mL,0.1 µg/mL,1.0 µg/mL,>10 µg/mL
KRRLILRILRLAIRALVKKR-NH2 [SP13-2],–,–,–,–,–,–,–,–,–,>10 µg/mL,0.25 µg/mL,5.0 µg/mL,0.25 µg/mL,10 µg/mL,5.0 µg/mL
RKKKFKFFKRLF-NH2 [SP1-12],–,–,–,–,–,–,–,–,–,>10 µg/mL,0.5 µg/mL,0.25 µg/mL,0.5 µg/mL,>10 µg/mL,0.1 µg/mL
RKKRVKLLKRLV-NH2 [SP1-2],–,–,–,–,–,–,–,–,–,>10 µg/mL,10 µg/mL,0.5 µg/mL,5.0 µg/mL,5.0 µg/mL,2.5 µg/mL
KRRKAIKILKLIAKAIRKKR-NH2 [SP13-9],–,–,–,–,–,–,–,–,–,>10 µg/mL,0.25 µg/mL,0.25 µg/mL,0.1 µg/mL,>10 µg/mL,>10 µg/mL

Substance,"MIC [1, 5]","MIC [2, 5]",MIC (Pseudomonas corrugata; [5]),MIC (Cladosporium herbarum),MIC (Botrytis cinerea),MIC (Xanthomonas vesicatoria; [5]),"MIC [3, 5]","MIC [4, 5]",MIC (Alternaria alternata),"MIC ([1]; Table 4, incubation period 1d)","MIC ([2]; Table 4, incubation period 2d)","MIC (Pseudomonas corrugata; Table 4, incubation period 2d)","MIC (Xanthomonas vesicatoria; Table 4, incubation period 2d)","MIC ([3]; Table 4, incubation period 1d)","MIC ([4]; Table 4, incubation period 1d)"
KKKKIIKRLI-NH2 [SP1-17],–,–,–,–,–,–,–,–,–,>10 µg/mL,>10 µg/mL,5.0 µg/mL,>10 µg/mL,1.0 µg/mL,<0.1 µg/mL
LLIKFLKRFIKH-NH2 [SP7-D],40 µg/mL,5 µg/mL,5 µg/mL,5 µg/mL,20 µg/mL,10 µg/mL,–,–,5 µg/mL,–,–,–,–,–,–
KRRKLAFRAFRFALKAVLKK-NH2 [SP13-13],–,–,–,–,–,–,–,–,–,>10 µg/mL,0.5 µg/mL,0.25 µg/mL,0.25 µg/mL,2.5 µg/mL,0.5 µg/mL
KRRLIFRILKLFFRFLVKKR-NH2 [SP13-4],–,–,–,–,–,–,–,–,–,>10 µg/mL,1.0 µg/mL,5.0 µg/mL,2.5 µg/mL,>10 µg/mL,10 µg/mL
RKKRKKLLKRLI-NH2 [SP1-20],–,–,–,–,–,–,–,–,–,>10 µg/mL,5.0 µg/mL,0.5 µg/mL,10 µg/mL,10 µg/mL,0.25 µg/mL
KRRKAIKILKLIAKLIRKKR-NH2 [SP13-8],–,–,–,–,–,–,–,–,–,>10 µg/mL,0.1 µg/mL,0.25 µg/mL,0.1 µg/mL,10 µg/mL,>10 µg/mL
LRKAKKIAKKLF-NH2 [SP10-11],–,–,–,–,–,–,–,–,–,>10 µg/mL,5.0 µg/mL,0.5 µg/mL,0.5 µg/mL,0.5 µg/mL,0.1 µg/mL
LRIIRRILRRLI-NH2 [SP10-6],–,–,–,–,–,–,–,–,–,2.5 µg/mL,2.5 µg/mL,2.5 µg/mL,1.0 µg/mL,1.0 µg/mL,2.5 µg/mL
RKKKFKIFKRLF-NH2 [SP1-14],–,–,–,–,–,–,–,–,–,>10 µg/mL,1.0 µg/mL,0.5 µg/mL,1.0 µg/mL,1.0 µg/mL,<0.1 µg/mL
KRRLIARILRLAIRALVKKR-NH2 [SP13-1],–,–,–,–,–,–,–,–,–,>10 µg/mL,0.5 µg/mL,2.5 µg/mL,0.5 µg/mL,1.0 µg/mL,1.0 µg/mL
KRRILIRILKLIIKLILKKR-NH2 [SP13-5],–,–,–,–,–,–,–,–,–,>10 µg/mL,2.5 µg/mL,10 µg/mL,1.0 µg/mL,2.5 µg/mL,>10 µg/mL
KRRKLIKILKLIAKLIRKKR-NH2 [SP13-7],–,–,–,–,–,–,–,–,–,>10 µg/mL,0.25 µg/mL,0.5 µg/mL,0.1 µg/mL,10 µg/mL,>10 µg/mL
RKKKIKIIKKII-NH2 [SP1-9],–,–,–,–,–,–,–,–,–,>10 µg/mL,2.5 µg/mL,5.0 µg/mL,2.5 µg/mL,5.0 µg/mL,0.5 µg/mL
RKKRKKLLKRLL-NH2 [SP1-18],–,–,–,–,–,–,–,–,–,>10 µg/mL,5.0 µg/mL,0.25 µg/mL,5.0 µg/mL,1.0 µg/mL,0.1 µg/mL
LRFAKKALKKLF-NH2 [SP10-3],–,–,–,–,–,–,–,–,–,>10 µg/mL,2.5 µg/mL,1.0 µg/mL,2.5 µg/mL,0.25 µg/mL,0.25 µg/mL

# From PMC3741113, “De-Novo Design of Antimicrobial Peptides for Plant Protection” (PLoS ONE, 2013)
